Experimental data published in ChEMBL document CHEMBL1201862, “PubChem BioAssay data set” (2004).
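Method: 48-hour compound exposure of cells in 96-well plates, five concentrations, linear interpolation of endpoints. GI50 is the concentration that inhibits growth by half.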 The source made the active and inactive calls. Cut-off read from the data, not from the text of the source: active = GI50 up to about 1.1 µM and inactive = higher.

Assays:
Assay in all cases: NCI-60 cell line screen, 48 h
OVCAR-5 = system: OVCAR-5
RXF 393 = system: RXF 393
UACC-62 = system: UACC-62
OVCAR-4 = system: OVCAR-4
HCT-15 = system: HCT-15
K562 = system: K562
SK-OV-3 = system: SK-OV-3
SW-620 = system: SW-620
HCT-116 = system: HCT-116
HOP-92 = system: HOP-92
ACHN = system: ACHN
NCI-H226 = system: NCI-H226
SNB-78 = system: SNB-78
SK-MEL-5 = system: SK-MEL-5
MOLT-4 = system: MOLT-4
NCI-H522 = system: NCI-H522
OVCAR-8 = system: OVCAR-8
SF-539 = system: SF-539
NCI/ADR-RES = system: NCI/ADR-RES
MDA-N = system: MDA-N

Structure (SMILES)	GI50 (OVCAR-5)	GI50 (RXF 393)	GI50 (UACC-62)	GI50 (OVCAR-4)	GI50 (HCT-15)	GI50 (K562)	GI50 (SK-OV-3)	GI50 (SW-620)	GI50 (HCT-116)	GI50 (HOP-92)	GI50 (ACHN)	GI50 (NCI-H226)	GI50 (SNB-78)	GI50 (SK-MEL-5)	GI50 (MOLT-4)	GI50 (NCI-H522)	GI50 (OVCAR-8)	GI50 (SF-539)	GI50 (NCI/ADR-RES)	GI50 (MDA-N)
Cn1cnc2[nH]c(=O)[nH]c(=S)c21	> 100 µM (inactive)	> 100 µM (inactive)	> 100 µM (inactive)	> 100 µM (inactive)	> 100 µM	> 100 µM (inactive)	> 100 µM (inactive)	> 100 µM (inactive)	> 100 µM (inactive)	> 100 µM (inactive)	> 100 µM (inactive)	> 100 µM (inactive)	> 100 µM (inactive)	> 100 µM (inactive)	> 100 µM (inactive)	> 100 µM (inactive)	> 100 µM (inactive)	> 100 µM (inactive)	–	–
O=C1C(c2ccccc2)=C(c2ccccc2)C(c2ccc(Cc3ccc(C4=C(c5ccccc5)C(=O)C(c5ccccc5)=C4c4ccccc4)cc3)cc2)=C1c1ccccc1	> 100 µM (inactive)	> 100 µM (inactive)	> 100 µM (inactive)	> 100 µM (inactive)	> 100 µM	> 100 µM (inactive)	> 100 µM (inactive)	> 100 µM (inactive)	> 100 µM (inactive)	> 100 µM (inactive)	–	50.6 µM (inactive)	> 100 µM (inactive)	> 100 µM (inactive)	> 100 µM (inactive)	> 100 µM (inactive)	> 100 µM (inactive)	> 100 µM (inactive)	–	–
NC(CCCCN/C=C1/N=C(c2ccccc2)OC1=O)C(=O)O (stereo not given)	> 100 µM (inactive)	> 100 µM (inactive)	> 100 µM (inactive)	> 100 µM (inactive)	> 100 µM	53.6 µM (inactive)	> 100 µM (inactive)	> 100 µM (inactive)	> 100 µM (inactive)	> 100 µM (inactive)	> 100 µM (inactive)	> 100 µM (inactive)	> 100 µM (inactive)	> 100 µM (inactive)	> 100 µM (inactive)	26.1 µM (inactive)	> 100 µM (inactive)	> 100 µM (inactive)	–	–
C/C(=N\NC(=N)N)C(CN(CC(C)C)CC(C)C)C(=O)Nc1ccc(C)cc1C (stereo not given)	> 100 µM (inactive)	> 100 µM (inactive)	> 100 µM (inactive)	> 100 µM (inactive)	> 100 µM	> 100 µM (inactive)	> 100 µM (inactive)	> 100 µM (inactive)	> 100 µM (inactive)	59.2 µM (inactive)	> 100 µM (inactive)	> 100 µM (inactive)	> 100 µM (inactive)	> 100 µM (inactive)	> 100 µM (inactive)	> 100 µM (inactive)	> 100 µM (inactive)	> 100 µM (inactive)	–	–
NNC(=O)C(=O)N/N=C(\CCC(=O)Nc1ccc(Cl)cc1)Cc1nc2ccccc2s1	33.1 µM (inactive)	17.2 µM (inactive)	22.1 µM (inactive)	–	19.1 µM	18.9 µM (inactive)	27.3 µM (inactive)	35.3 µM (inactive)	28.1 µM (inactive)	45.5 µM (inactive)	26.1 µM (inactive)	> 100 µM (inactive)	70.5 µM (inactive)	21.8 µM (inactive)	18.5 µM (inactive)	15.5 µM (inactive)	> 100 µM (inactive)	32.7 µM (inactive)	–	–
O=C1CCCC2=C(N1)C(=O)C=CC2=O	33.4 µM (inactive)	45 µM (inactive)	42.2 µM (inactive)	45.7 µM (inactive)	42.2 µM	6.73 µM (inactive)	> 100 µM (inactive)	23.1 µM (inactive)	33.7 µM (inactive)	22.2 µM (inactive)	40.6 µM (inactive)	11.1 µM (inactive)	> 100 µM (inactive)	42.1 µM (inactive)	12.3 µM (inactive)	13.6 µM (inactive)	47.4 µM (inactive)	44.4 µM (inactive)	26.8 µM (inactive)	16.8 µM (inactive)
O=c1c2ccccc2c(=O)n2n1-c1cccc(c1)CSSCc1cccc-2c1	> 10 µM (inactive)	> 100 µM (inactive)	> 10 µM (inactive)	> 10 µM (inactive)	> 10 µM	> 10 µM (inactive)	52.8 µM (inactive)	> 10 µM (inactive)	> 10 µM (inactive)	5.9 µM (inactive)	> 10 µM (inactive)	> 10 µM (inactive)	62.1 µM (inactive)	> 10 µM (inactive)	> 10 µM (inactive)	> 10 µM (inactive)	> 10 µM (inactive)	> 10 µM (inactive)	–	–
CC(=O)NNc1nc(C)c(C(=O)/C=C/c2ccccc2Cl)s1	> 100 µM (inactive)	> 100 µM (inactive)	> 100 µM (inactive)	–	> 100 µM	> 100 µM (inactive)	> 100 µM (inactive)	> 100 µM (inactive)	–	> 100 µM (inactive)	> 100 µM (inactive)	> 100 µM (inactive)	> 100 µM (inactive)	> 100 µM (inactive)	> 100 µM (inactive)	43.5 µM (inactive)	> 100 µM (inactive)	> 100 µM (inactive)	–	–
CCCCCCCCCCCCOC(=N)N1CCOCC1	14.9 µM (inactive)	8.99 µM (inactive)	9.77 µM (inactive)	7.62 µM (inactive)	4.08 µM	1.88 µM (inactive)	17 µM (inactive)	4.11 µM (inactive)	8.39 µM (inactive)	1.32 µM (inactive)	14.2 µM (inactive)	20.7 µM (inactive)	6.59 µM (inactive)	11 µM (inactive)	2 µM (inactive)	14.6 µM (inactive)	16.4 µM (inactive)	0.982 µM (active)	–	–
COc1cc(C2c3cc4c(cc3[C@@H](Nc3ccc([N+](=O)[O-])cc3)C3COC(=O)[C@H]23)OCO4)cc(OC)c1O (stereo not given in full)	2.69 µM (inactive)	2.02 µM (inactive)	0.971 µM (active)	12.2 µM (inactive)	2.87 µM	2.44 µM (inactive)	1.54 µM (inactive)	1.5 µM (inactive)	2.27 µM (inactive)	1.78 µM (inactive)	0.25 µM (active)	0.67 µM (active)	5.68 µM (inactive)	0.586 µM (active)	0.0171 µM (active)	1.63 µM (inactive)	1.83 µM (inactive)	0.92 µM (active)	3.39 µM (inactive)	4.09 µM (inactive)
